Values of other authors in patent publication US4202888A, “Readily enterally absorbable pharmaceutical compositions of cardiac glycosides and preparation thereof” (priority 1976, dated 1980).

Conditions: for enteral absorbability (in words): background statement; for per se enteral absorbability: without partial glycerides

| Molecule | enteral absorbability (in words) | per se enteral absorbability | factor of individual variation in enteral absorption (between individuals) |
| --- | --- | --- | --- |
| C[C@H]1O[C@@H](O[C@H]2[C@@H](O)C[C@H](O[C@H]3[C@@H](O)C[C@H](O[C@H]4CC[C@@]5(C)[C@H](CC[C@@H]6[C@@H]5CC[C@]5(C)[C@@H](C7=CC(=O)OC7)CC[C@]65O)C4)O[C@@H]3C)O[C@@H]2C)C[C@H](O)[C@@H]1O [digitoxin] | absorbable completely | – | – |
| C[C@@H]1O[C@@H](O[C@@H]2C=C3CC[C@@H]4[C@H](CC[C@]5(C)[C@@H](c6ccc(=O)oc6)CC[C@]45O)[C@@]3(C)CC2)[C@H](O)[C@H](O)[C@H]1O [proscillaridin] | insufficient enteral absorbability | less than 5% | – |
| C[C@H]1O[C@@H](O[C@H]2[C@@H](O)C[C@H](O[C@H]3[C@@H](O)C[C@H](O[C@H]4CC[C@@]5(C)[C@H](CC[C@@H]6[C@@H]5C[C@@H](O)[C@]5(C)[C@@H](C7=CC(=O)OC7)CC[C@]65O)C4)O[C@@H]3C)O[C@@H]2C)C[C@H](O)[C@@H]1O [digoxin] | to at least an acceptable degree | – | – |
| CC1OC(OC2CC(O)C3(CO)C4C(O)CC5(C)C(C6=CC(=O)OC6)CCC5(O)C4CCC3(O)C2)C(O)C(O)C1O (stereo not drawn) [g-strophanthin] | insufficient enteral absorbability | less than 5% | 10 |
| k-strophanthin | insufficient enteral absorbability | less than 5% | – |
